Test results from patent US20080131867A1, “Method for Determining the Effectiveness of a Treatment for Preeclampsia” (priority 2006, published 2008).

Columns and labels:
[1] = system: women with elevated risk to develop preeclampsia; test: Delivery outcome of high-risk women treated with low dose aspirin; format: in vivo, human; settings: for Outcome: Normal (number of women) / Outcome: Preeclampsia (number of women): 50 treated
Experimental: (§1) If in the period specified above a medication is used, it is anticipated that it will bring a woman's PP13 level to the 2nd or 3rd or even the 4th quartile, corresponding to their reduced likelihood of developing preeclampsia. In the example described in Table 2, women with elevated risk to develop preeclampsia were orally treated from GW8 with a dose of […] aspirin (“low dose aspirin”) for either 2 or 3 weeks. […] Accordingly, women who were treated were anticipated to have lower risk to develop preeclampsia and their outcome should also be improved.
(§2) In the study shown in Table 2, of 150 women tested as being at high risk in the 8th week, 50 were not treated, 50 were treated with aspirin for two weeks and 50 were treated for 3 weeks. […] The calculation of their anticipated risk was reduced accordingly.

[2] = system: PP13 release from placenta explants; test: Therapeutic effectiveness on PP13 release from standardized placenta explants in presence of patient serum (indirect method); format: cell-based, human
Source text: Scenario 1: Simple Direct Tailoring with a Diversity of Drugs. • We have standardized culture conditions for first trimester explants or explants obtained after delivery. • Explants could be the ones made of patients after delivery or those obtained by Chorionic villi sampling (CVS) at gestational weeks 10-12 or other placenta biopsies as the case may be. • Standardization means defined median viability index, protein content in the explant, total protein released to the medium, PP13 content in the explant and PP13 release from the explant, among others. • Drug effect in-vitro is the effect of drug applied to the culture medium on PP13 release from the placenta explant after 24 hr to 7 days. The effect is compared to the baseline release as measured without the drug. • The Therapeutic Index is thus the in-vitro relative effectiveness of the drug when applied to explants as measured by the difference between PP13 release with (PP13D1) and without (PP130) the drug by the equation: (PP130−PP13D1)/PP130, after normalizing to viability, protein content etc as described above, given all other parameters are the same. • It is important to note that in the first trimester (gestational weeks 6-13) PP13 in diseased patient is lower than Normal. Thus the therapeutic index is to return PP13 release is calculated as drugs that elevate PP13 release. In the third trimester (gestational week 26 and above), PP13 is higher in preeclamptic patients than normal. Thus the therapeutic index is decreasing PP13 release back to Normal. • According to the in-vitro therapeutic index one drug or a drug combinations are selected for the in-vivo interventional medication treatment. • Follow up: after selecting the drug to be administrating to the patient, bi-weekly blood testing follow up is recommended to be carried out by measuring the PP13 in the blood and calculating
If so, drugs that appears beneficial to standardized culture explants wouldn't work when applied together with the patient samples. It can be seen that the serum from the patient at high risk for preeclampsia caused serious inhibition of many of the types of treatment.

PP13 = test: Allocation of high-risk women to serum PP13 quartiles after low dose aspirin; format: in vivo, human; settings: for Frequency of 1st quartile cases / Frequency of 2nd quartile cases / Frequency of 3rd quartile cases: high-risk women
Experimental: Unless otherwise indicated, in all experiments, PP13 was measured (blinded to pregnancy outcome) in maternal venous serum by solid-phase sandwich ELISA assay. The PP13 level was calibrated according to standard curves prepared from calibrated standards of recombinant PP13. Concentrations are given in pg PP13/ml serum.
First trimester PP13 could serve as a measure to assess the risk for a later development of preeclampsia. According to FIG. 2 and Table 1, in the first trimester, the majority of the women who will go on to develop preeclampsia have very low levels of PP13 while most women who will have a normal outcome have higher PP13 values. In one study summarized in Table 2 and FIG. 3, the PP13 level was measured at 8 weeks of gestation from 50 cases who went on to develop preeclampsia and in 290 cases with normal outcome. The method of multiples of the gestation-specific median (MoM) was used, and at MoM cutoffs of 0.45, the false positive rate was 10% and the sensitivity 87%. This means that 43 out of 50 preeclampsia cases and 29 out of 290 normal were identified as being at high risk. Thus, while the risk for PP13 in the population is 5%, in the group with PP13 below 0.45, the frequency of preeclampsia was 59% (more than 10 times above the frequency in the population not tested).
Sensitivity and specificity were calculated from the receiver operating characteristic (ROC) analysis based on the indicated MoM cutoffs of 0.45. Sensitivity value is provided in Table 2 in percentile for 10% false positive rate. The odds ratio for developing the pathology was determined by two methods of calculations:
1) modeling, that calculate the Odds ratio as already described above after taking into consideration the prevalence of the pathology in the population, and
2) the quartile assessment procedure, of calculating of the odds ratio for the development of preeclampsia based on the comparison of PP13 in the lowest quartile (25%) versus PP13 in the third quartile (75th percent).
as §1, §2
Sensitivity in percentile values are shown when the specificity was fixed to 90% (95% CI: 86%-93%), corresponding to having […] cases of false positives (10%).

## CC(=O)Oc1ccccc1C(=O)O [Aspirin, salicylic acid (aspirin)]
[1]; 14 days aspirin
  Outcome: Normal (number of women): 26 Normal
  Outcome: Preeclampsia (number of women): 24 Preeclampsia
[1]; 21 days aspirin
  Outcome: Normal (number of women): 33 Normal
  Outcome: Preeclampsia (number of women): 18 Preeclampsia
[1]; aspirin for 2 or 3 weeks
  Number of preeclampsia cases, treated vs. untreated groups: significantly lower
[2]; applied with serum from a Normal Patient
  Therapeutic Effectiveness on PP13 release from placenta explants: 74%
[2]; applied with serum from a Patient at high risk for preeclampsia
  Therapeutic Effectiveness on PP13 release from placenta explants: 40%
PP13; 14 days aspirin
  Odds ratio (by modeling) for developing preeclampsia: 5.9
  Odds ratio (by quartiles) for developing preeclampsia: 5.6
  Frequency of 1st quartile cases: 20/50
  Frequency of 2nd quartile cases: 24/45
  Frequency of 3rd quartile cases: 5/50
PP13; 21 days aspirin
  Odds ratio (by modeling) for developing preeclampsia: 3.3
  Odds ratio (by quartiles) for developing preeclampsia: 3.2
  Frequency of 1st quartile cases: 14/50
  Frequency of 2nd quartile cases: 30/50
  Frequency of 3rd quartile cases: 5/50
PP13; aspirin for 2 or 3 weeks
  Numbers of patients in the 2nd and 3rd PP13 quartiles compared to the first quartile: elevated significantly
